From patent publication US6833456B2, “Indolyl-urea derivatives of thienopyridines useful as antiangiogenic agents, and methods for their use” (Agouron Pharmaceuticals, Inc., priority 2002, dated 2004)
Several values for one entry are separate records, joined by “and”; a condition that tells them apart may be missing. Equal entries are not always repeated.

Experiments:
PDGFRβ = biological target: T1, PDGFRβ (Homo sapiens, UniProt P09619); test: PAE-PDGFRβ phosphorylation in PAE-PDGFRB cells assay; format: cell-based; details: PAE cells overexpressing human PDGFRβ, PDGF-BB stimulated; read-out: PAE PDGFR autophos IC50
T1 construct: expressed in transfected cells; host or cells: porcine aorta endothelial (PAE) cells
T1 sequence (P09619 33-1106): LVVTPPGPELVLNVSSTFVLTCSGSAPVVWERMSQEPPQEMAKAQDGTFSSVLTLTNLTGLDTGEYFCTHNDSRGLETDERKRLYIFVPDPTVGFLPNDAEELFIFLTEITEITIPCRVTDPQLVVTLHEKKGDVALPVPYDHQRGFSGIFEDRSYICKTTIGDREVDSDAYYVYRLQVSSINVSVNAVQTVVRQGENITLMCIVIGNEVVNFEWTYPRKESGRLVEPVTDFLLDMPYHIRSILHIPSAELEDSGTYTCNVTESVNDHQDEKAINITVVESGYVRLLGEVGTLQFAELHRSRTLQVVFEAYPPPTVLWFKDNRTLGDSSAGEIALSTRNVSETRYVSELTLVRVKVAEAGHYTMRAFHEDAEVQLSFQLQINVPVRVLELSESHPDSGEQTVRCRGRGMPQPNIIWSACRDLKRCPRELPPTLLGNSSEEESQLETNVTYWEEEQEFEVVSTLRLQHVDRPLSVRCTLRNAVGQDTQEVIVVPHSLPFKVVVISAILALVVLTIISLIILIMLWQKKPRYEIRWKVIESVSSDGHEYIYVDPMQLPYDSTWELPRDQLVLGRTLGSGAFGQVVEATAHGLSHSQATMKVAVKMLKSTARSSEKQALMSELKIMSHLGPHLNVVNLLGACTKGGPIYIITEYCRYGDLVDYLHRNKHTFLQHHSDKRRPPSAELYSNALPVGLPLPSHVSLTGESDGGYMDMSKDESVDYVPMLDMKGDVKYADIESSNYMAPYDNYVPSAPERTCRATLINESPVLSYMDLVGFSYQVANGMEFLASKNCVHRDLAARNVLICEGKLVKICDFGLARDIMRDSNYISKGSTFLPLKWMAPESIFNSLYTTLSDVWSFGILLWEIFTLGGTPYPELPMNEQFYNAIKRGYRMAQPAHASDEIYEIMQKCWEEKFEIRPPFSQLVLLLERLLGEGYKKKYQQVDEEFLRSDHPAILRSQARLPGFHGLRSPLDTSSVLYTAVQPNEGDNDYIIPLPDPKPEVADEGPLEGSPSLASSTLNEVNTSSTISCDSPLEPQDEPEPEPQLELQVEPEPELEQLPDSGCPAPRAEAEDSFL
Summary of the method: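 PAE cells overexpressing human PDGFRβ, serum-starved 16 h (0.1% FBS), compound 1 h at 37° C (0.5% DMSO), then 1 μg/mL PDGF-BB with 2 mM Na3VO4 for 8 min. Receptor captured by anti-PDGFRβ, phosphotyrosine detected by HRP-PY20/TMB at 450 nm; IC50 by four-parameter fit.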

HUVEC = test: bFGF HUVEC proliferation; format: cell-based, human; details: bFGF stimulated HUVEC
[1] = test system: human umbilical vein endothelial cells (HUVEC); test: HUVEC+VEGF proliferation assay; format: cell-based; details: VEGF 6 ng/mL, MTT
Summary of the method: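 Proliferation driven by VEGF (final 6 ng/mL) was quantified by MTT reduction (A595) 72 h after stimulation. Passage 3-4 HUVEC were starved for 24 h in 1% FBS F12K and given test agent 1 h before VEGF, with DMSO at 0.1% final.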

[2] = biological target: T2, unphosphorylated VEGF-R2Δ50 (FLVK) (Homo sapiens, UniProt P35968, DEL940-989/E990V); test: VEGF-R2 coupled spectrophotometric assay, unphosphorylated construct (FLVK); format: biochemical; details: for inhibition at 0.05 µM: percent inhibition at 50 nM
T2 construct: VEGF-R2Δ50 contains residues 806-939 and 990-1171; made in house; host or cells: baculovirus/insect cell system
T2 sequence (P35968 with tags, fused parts or gaps DEL940-989/E990V limits assumed): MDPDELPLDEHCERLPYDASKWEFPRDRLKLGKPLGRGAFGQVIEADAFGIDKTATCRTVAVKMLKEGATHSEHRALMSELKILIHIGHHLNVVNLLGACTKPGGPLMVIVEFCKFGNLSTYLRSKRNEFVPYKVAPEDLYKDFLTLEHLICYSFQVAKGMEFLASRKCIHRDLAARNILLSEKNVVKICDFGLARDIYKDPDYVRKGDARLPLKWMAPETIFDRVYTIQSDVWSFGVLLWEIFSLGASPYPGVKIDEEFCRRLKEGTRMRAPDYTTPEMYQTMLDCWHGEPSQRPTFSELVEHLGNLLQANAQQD
Summary of the method: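 Continuous coupled assay (PEP, PK, LDH; NADH loss at 340 nm) in 200 mM HEPES pH 7.5 with 3 mM ATP, 20 mM poly(E4Y1), 60 mM MgCl2 plus 2 mM MnCl2, started with 5-40 nM non-autophosphorylated VEGF-R2Δ50. Ki values from activity across compound concentrations, Morrison fit.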

Mouse PK assay = format: in vivo, B6 female mice; details: po
Procedure: The pharmacokinetics (e.g., absorption and elimination) of drugs in mice were analyzed using the following experiment. Test compounds were formulated as a suspension in a 30:70 (PEG 400: acidified H2O) vehicle. This solution was administered orally (p.o.) and intraperitoneally (i.p.) at 50 mg/kg to two distinct groups (n=4) of B6 female mice. Blood samples were collected via an orbital bleed at time points: 0 hour (pre-dose), 0.5 hr, 1.0 hr, 2.0 hr, and 4.0 hr post dose. Plasma was obtained from each sample by centrifugation at 2500 rpm for 5 min. Test compound was extracted from the plasma by an organic protein precipitation method. For each time bleed, 50 μL of plasma was combined with 1.0 mL of acetonitrile, vortexed for 2 min. and then spun at 4000 rpm for 15 min. to precipitate the protein and extract out the test compound. Next, the acetonitrile supernatant (the extract containing test compound) was poured into new test tubes and evaporated on a hot plate (25° C.) under a steam of N2 gas. To each tube containing the dried test compound extract, 125 μL of mobile phase (60:40, 0.025 M NH4H2PO4+2.5 mL/L TEA:acetonitrile) was added. The test compound was resuspended in the mobile phase by vortexing and more protein was removed by centrifugation at 4000 rpm for 5 min. Each sample was poured into an HPLC vial for test compound analysis on an Hewlett Packard 1100 series HPLC with UV detection. From each sample, 95 μL was injected onto a Phenomenex-Prodigy reverse phase C-18, 150×3.2 mm column and eluted with a 45-50% acetonitrile gradient run over 10 min. Test-compound plasma concentrations (μg/mL) were determined by a comparison to standard curve (peak area vs. conc. μg/mL) using known concentrations of test compound extracted from plasma samples in the manner described above. Along with the standards and unknowns, three groups (n=4) of quality controls (0.25 μg/mL, 1.5 μg/mL, and 7.5 μg/mL) were run to insure the consistency of the analysis. […] The quantitated test samples were plotted for visual display using Kaleidagraph software and their pharmacokinetic parameters were determined using WIN NONLIN software.

KDR (VEGFR2) = biological target: T3, KDR (VEGFR2) (Homo sapiens, UniProt P35968); test: KDR (VEGFR2) phosphorylation in PAE-KDR cells assay; format: cell-based; details: PAE cells overexpressing human KDR, VEGF stimulated; read-out: PAE KDR autophos IC50
T3 construct: expressed in transfected cells; host or cells: porcine aorta endothelial (PAE) cells
T3 sequence (P35968 20-1356): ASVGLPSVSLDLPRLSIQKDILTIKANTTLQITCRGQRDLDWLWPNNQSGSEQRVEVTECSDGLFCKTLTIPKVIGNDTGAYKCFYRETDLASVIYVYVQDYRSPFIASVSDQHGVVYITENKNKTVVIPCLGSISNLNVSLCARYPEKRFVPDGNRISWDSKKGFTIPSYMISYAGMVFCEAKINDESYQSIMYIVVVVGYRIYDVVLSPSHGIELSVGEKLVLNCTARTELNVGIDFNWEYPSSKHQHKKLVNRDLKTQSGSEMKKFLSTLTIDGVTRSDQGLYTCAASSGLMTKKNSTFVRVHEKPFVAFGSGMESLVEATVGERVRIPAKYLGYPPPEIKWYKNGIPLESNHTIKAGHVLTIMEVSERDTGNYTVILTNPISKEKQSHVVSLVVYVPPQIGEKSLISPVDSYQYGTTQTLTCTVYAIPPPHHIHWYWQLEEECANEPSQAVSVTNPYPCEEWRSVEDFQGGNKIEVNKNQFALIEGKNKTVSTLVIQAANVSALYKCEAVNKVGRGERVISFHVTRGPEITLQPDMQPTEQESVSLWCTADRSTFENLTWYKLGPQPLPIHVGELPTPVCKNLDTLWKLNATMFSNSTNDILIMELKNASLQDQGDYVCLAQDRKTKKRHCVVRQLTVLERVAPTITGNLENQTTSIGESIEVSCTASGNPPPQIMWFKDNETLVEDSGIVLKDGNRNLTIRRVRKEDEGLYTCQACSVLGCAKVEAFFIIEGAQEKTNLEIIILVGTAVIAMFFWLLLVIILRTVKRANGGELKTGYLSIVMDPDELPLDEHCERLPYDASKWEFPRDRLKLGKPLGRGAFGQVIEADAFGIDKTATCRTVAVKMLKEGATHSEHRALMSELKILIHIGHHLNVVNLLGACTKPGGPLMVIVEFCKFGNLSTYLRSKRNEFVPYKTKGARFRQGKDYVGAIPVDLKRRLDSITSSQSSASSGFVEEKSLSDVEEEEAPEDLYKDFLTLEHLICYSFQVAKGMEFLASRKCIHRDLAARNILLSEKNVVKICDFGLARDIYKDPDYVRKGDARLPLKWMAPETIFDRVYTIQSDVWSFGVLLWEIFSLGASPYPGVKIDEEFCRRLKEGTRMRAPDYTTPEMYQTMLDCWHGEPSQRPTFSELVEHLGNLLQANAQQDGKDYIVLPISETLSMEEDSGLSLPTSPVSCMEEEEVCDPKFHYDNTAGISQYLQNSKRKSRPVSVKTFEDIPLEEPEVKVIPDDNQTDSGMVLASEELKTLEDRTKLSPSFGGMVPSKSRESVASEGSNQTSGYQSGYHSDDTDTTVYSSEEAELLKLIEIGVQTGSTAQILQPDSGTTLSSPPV
Procedure: This assay determines the ability of a test compound to inhibit the autophosphorylation of KDR in porcine aorta endothelial (PAE)-KDR cells. PAE cells that overexpress human KDR were used in this assay. The cells were cultured in Ham's F12 media supplemented with 10% fetal bovine serum (FBS) and 400 ug/mL G418. Thirty thousands cells were seeded into each well of a 96-well plate in 75 μL of growth media and allowed to attach for 6 hours at 37° C. Cells were then exposed to the starvation media (Ham's F12 media supplemented with 0.1% FBS) for 16 hours. After the starvation period was over, 10 μL of test agent in 5% DMSO in starvation media were added to the test wells and 10 μL of the vehicle (5% DMSO in starvation media) were added into the control wells. The final DMSO concentration in each well was 0.5%. Plates were incubated at 37° C. for 1 hour and the cells were then stimulated with 500 ng/ml VEGF (commercially available from R & D System) in the presence of 2 mM Na3VO4 for 8 minutes. The cells were washed once with 1 mm Na3VO4 in HBSS and lysed by adding 50 μL per well of lysis buffer. One hundred μL of dilution buffer were then added to each well and the diluted cell lysate was transferred to a 96-well goat ant-rabbit coated plate (commercially available from Pierce) which was pre-coated with Rabbit anti Human Anti-flk-1 C-20 antibody (commercially available from Santa Cruz). The plates were incubated at room temperature for 2 hours and washed seven times with 1% Tween 20 in PBS. HRP-PY20 (commercially available from Santa Cruz) was diluted and added to the plate for a 30-minute incubation. Plates were then washed again and TMB peroxidase substrate (commercially available from Kirkegaard & Perry) was added for a 10-minute incubation. One hundred μL of 0.09 N H2SO4 was added to each well of the 96-well plates to stop the reaction. Phosphorylation status was assessed by spectrophotometer reading at 450 nm. IC50 values were calculated by curve fitting using a four-parameter analysis.

5-[2-(3S-Methoxy-pyrrolidine-1-carbonyl)-thieno[3,2-b]pyridin-7-ylamino]-2-methyl-2,3-dihydro-indole-1-carboxylic acid methylamide [Example 1u]
IC50 (PDGFRβ): > 100 nM | IC50 (HUVEC): 4840 nM | IC50 ([1]; 72 hours): > 10 nM

CNC(=O)n1c(C)cc2cc(Nc3ccnc4cc(C(=O)N5CC[C@H](O)C5)sc34)ccc21 [Example 1i, 5-[2-(3S-Hydroxy-pyrrolidine-1-carbonyl)-thieno[3,2-b]pyridin-7-ylamino]-2-methyl-indole-1-carboxylic acid methylamide]
IC50 (PDGFRβ): ~1000 nM | IC50 (HUVEC; Homo sapiens, HUVEC): 44.2 nM | Ki [2]: 0.69 nM | inhibition at 0.05 µM [2]: 93% | IC50 ([1]; Homo sapiens, HUVEC, 72 h): 1.03 nM

C#CCNC(=O)n1c(C)cc2cc(Nc3ccnc4cc(C(=O)N5CC[C@@H](OC)C5)sc34)ccc21 [Example 1p, 5-[2-(3R-Methoxy-pyrrolidine-1-carbonyl)-thieno[3,2-b]pyridin-7-ylamino]-2-methyl-indole-1-carboxylic acid prop-2-ynylamide]
IC50 (PDGFRβ): 56 nM | AUC (Mouse PK assay; female, B6, mouse, plasma, 50 mg/kg): 2530 ng·h/mL | Cmax (Mouse PK assay; female, B6, mouse, plasma, 50 mg/kg, p.o., 50 mg/kg, read-out: Mouse Cmax, po ng-h/mL): 1230 ng/mL | Mouse Cmin, po (Mouse PK assay): 34 ng/mL | IC50 (HUVEC; Homo sapiens, HUVEC): 119 nM | Ki [2]: 0.2 nM | inhibition at 0.05 µM [2]: 93%

CNC(=O)n1c(C)cc2cc(Nc3ccnc4cc(C(=O)N5C[C@H](O)C[C@H]5C(C)(C)O)sc34)ccc21 [Example 3d, 5-{2-[(2S,4R)-4-Hydroxy-2-(1-hydroxy-1-methyl-ethyl)-pyrrolidine-1-carbonyl]-thieno[3,2-b]pyridin-7-ylamino}-2-methyl-indole-1-carboxylic acid methylamide]
IC50 (PDGFRβ): > 1000 nM | IC50 (KDR (VEGFR2)): 2.7 nM and 6.9 nM | Ki [2]: 1.11 nM | inhibition at 0.05 µM [2]: 60% | IC50 ([1]; Homo sapiens, HUVEC, 72 h): 61.6 nM

COC[C@@H]1C[C@@H](O)CN1C(=O)c1cc2nccc(Nc3ccc4c(c3)cc(C)n4C(=O)NC3CC3)c2s1 [Example 3h]
IC50 (HUVEC; Homo sapiens, HUVEC): 225 nM | Ki [2]: 1.19 nM | inhibition at 0.05 µM [2]: 95% | IC50 ([1]; Homo sapiens, HUVEC, 72 h): 1.94 nM

Cc1cc2c(F)c(Oc3ccnc4cc(C(=O)N5CCC[C@H]5CO)sc34)ccc2n1C(=O)NC1CC1 [Example 5d, 4-Fluoro-5-[2-(2S-hydroxymethyl-pyrrolidine-1-carbonyl)-thieno[3,2-b]pyridin-7-yloxy]-2-methyl-indole-1-carboxylic acid cyclopropylamide]
IC50 (PDGFRβ): 21.5 nM | IC50 (KDR (VEGFR2)): 0.53 nM and 0.44 nM and 0.275 nM | Ki [2]: 0.324 nM | inhibition at 0.05 µM [2]: 96% | IC50 ([1]; Homo sapiens, HUVEC, 72 h): 0.35 nM

CNC(=O)n1c(C)cc2c(F)c(Oc3ccnc4cc(C(=O)N5CC[C@H](OC)C5)sc34)ccc21 [Example 5f, 4-Fluoro-5-[2-(3S-methoxy-pyrrolidine-1-carbonyl)-thieno[3,2-b]pyridin-7-yloxy]-2-methyl-indole-1-carboxylic acid methylamide]
IC50 (PDGFRβ): 9.9 nM | IC50 (KDR (VEGFR2)): 0.178 nM | Ki [2]: 0.095 nM | inhibition at 0.05 µM [2]: 100% | IC50 ([1]; Homo sapiens, HUVEC, 72 h): 0.116 nM

CO[C@H]1CCN(C(=O)c2cc3nccc(Oc4ccc5c(cc(C)n5C(=O)NC5CC5)c4F)c3s2)C1 [Example 5h, 4-Fluoro-5-[2-(3S-methoxy-pyrrolidine-1-carbonyl)-thieno[3,2-b]pyridin-7-yloxy]-2-methyl-indole-1-carboxylic acid cyclopropylamide]
IC50 (PDGFRβ): 9.9 nM | IC50 (KDR (VEGFR2)): 0.29 nM | Ki [2]: 0.52 nM | inhibition at 0.05 µM [2]: 98% | IC50 ([1]; Homo sapiens, HUVEC, 72 h): 0.28 nM

CNC(=O)n1c(C)c(Cl)c2c(F)c(Oc3ccnc4cc(C(=O)N5CC[C@H](OC)C5)sc34)ccc21 [Example 6b, 3-Chloro-4-fluoro-5-[2-(3S-methoxy-pyrrolidine-1-carbonyl)-thieno[3,2-b]pyridin-7-yloxy]-2-methyl-indole-1-carboxylic acid methylamide]
IC50 (PDGFRβ): 21.2 nM | IC50 (KDR (VEGFR2)): 0.952 nM | Ki [2]: 0.647 nM | inhibition at 0.05 µM [2]: 99% | IC50 ([1]; Homo sapiens, HUVEC, 72 h): 1.46 nM

CO[C@H]1CCN(C(=O)c2cc3nccc(Oc4ccc5c(c4F)c(Cl)c(C)n5C(=O)NC4CC4)c3s2)C1 [Example 6c, 3-Chloro-4-fluoro-5-[2-(3S-methoxy-pyrrolidine-1-carbonyl)-thieno[3,2-b]pyridin-7-yloxy]-2-methyl-indole-1-carboxylic acid cyclopropyl-amide]
IC50 (PDGFRβ): 32 nM | IC50 (KDR (VEGFR2)): 1.27 nM | Ki [2]: 0.688 nM | inhibition at 0.05 µM [2]: 97% | IC50 ([1]; Homo sapiens, HUVEC, 72 h): 0.99 nM

CO[C@H]1CN(C(=O)c2cc3nccc(Oc4ccc5c(c4)cc(C)n5C(=O)NCCO)c3s2)CC1F (stereo partly drawn) [Example 8k, 5-[(2-{[(4S)-3-Fluoro-4-methoxypyrrolidin-1-yl]carbonyl}thieno[3,2b]pyridin-7-yl)oxy]-N-(2-hydroxyethyl)-2-methyl-1H-indole-1-carboxamide]
IC50 (HUVEC; Homo sapiens, HUVEC): 18 nM | Ki [2]: 0.868 nM | inhibition at 0.05 µM [2]: 95% | IC50 ([1]; Homo sapiens, HUVEC, 72 h): 0.32 nM

Cc1cc2cc(Oc3ccnc4cc(C(=O)N5CCC5)sc34)ccc2n1C(=O)NCCCO [Example 8n, 5-[2-(Azetidine-1-carbonyl)-thieno[3,2-b]pyridin-7-yloxy]-2-methyl-indole-1-carboxylic acid (3-hydroxy-propyl)-amide]
IC50 (PDGFRβ): 10.2 nM | IC50 (HUVEC; Homo sapiens, HUVEC): 58 nM | Ki [2]: 0.089 nM | inhibition at 0.05 µM [2]: 97%

CNC(=O)n1c(C)cc2cc(Oc3ccnc4cc(C(=O)N5CC(O)C5)sc34)ccc21 [Example 8o, 5-[2-(3-Hydroxy-azetidine-1-carbonyl)-thieno[3,2-b]pyridin-7-yloxy]-2-methyl-indole-1-carboxylic acid methylamide]
IC50 (HUVEC; Homo sapiens, HUVEC): 61 nM | Ki [2]: 4.47 nM | inhibition at 0.05 µM [2]: 74% | IC50 ([1]; Homo sapiens, HUVEC, 72 h): 1.25 nM

CO[C@H]1CCN(C(=O)c2cc3nccc(Oc4ccc5c(c4)cc(C)n5C(=O)NCCCO)c3s2)C1 [Example 9b, 5-[2-(3S-Methoxy-pyrrolidine-1-carbonyl)-thieno[3,2-b]pyridin-7-yloxy]-2-methyl-indole-1-carboxylic acid (3-hydroxy-propyl)-amide]
IC50 (PDGFRβ): 60 nM | IC50 (KDR (VEGFR2)): 0.67 nM | Ki [2]: 0.488 nM | inhibition at 0.05 µM [2]: 97% | IC50 ([1]; Homo sapiens, HUVEC, 72 h): 0.33 nM
